Results from patent US20140220094A1, “METHODS AND COMPOSITIONS FOR A LAPAROSCOPIC SURGERY” (Prelief Inc., priority 2009, published 2014).

Tested on: laparoscopic ports
Assay: Laparoscopic cutaneous studies: treated vs untreated laparoscopic port sites
Format: in vivo, human
Conditions: another patient, 10 days after the treatment
Method: Cellerity® 10 topical lotion has been used in single patient multiple sites laparoscopic procedure studies. The studies compared healing time, severity of scar formation and inflammation at laparoscopic ports with and without CGP treatment.
The treatment was started within 24 hours after the laparoscopic surgery. The patient was instructed to allow the applied lotion to dry completely before applying their clothes and not to wash the treatment area for two hours after the application. This procedure was performed twice a day for three full weeks. […] The untreated ports were grossly inflamed, had tissue necrosis at the incision site and desquamation of epithelium. It also remained inflamed and the staple sites were still prominent and erythematous. At the incision line, a glassy layer of fibroblastic scar tissue was present.
Steri-Strips to the left side of the incisions, and leaving the midline left untreated. […] The untreated midline scar remained as inflamed and delayed in the healing process by 3-4 weeks, because the inflamed situation must resolve before the healing can occur. That delay appeared to have allowed more fibroblastic growth in the untreated scar, than was present on the treated scars.

## calcium glycerophosphate [CGP]
Left and right sides treated
  edematous changes vs untreated midline incision: no edematous changes
  erythema vs untreated midline incision: less erythema
  inflammation vs untreated midline incision: substantially less inflammation
Treatment started 24 hours after surgery
  difference between direct application (right side) and application through Steri-Strips (left side): no difference
